Earlier results, collected in patent US20100331927A1, “FEEDBACK-CONTROLLED METHOD FOR DELIVERING PHOTODYNAMIC THERAPY AND RELATED INSTRUMENTATION” (priority 2007, published 2010).

Tested on: rat bladder tumor model
Details: 60s/60s light interval/dark interval

C=Cc1c(C)c2cc3nc(cc4[nH]c(cc5nc(cc1[nH]2)C(C)=C5CCC(=O)O)c(CCC(=O)OC)c4C)C1(C)C3=CC=C(C(=O)OC)C1C(=O)OC (stereo not shown) [BPD-MA]
improvement of phototoxicity by light fractionation: 1000 fold
